In ChEMBL document CHEMBL1139667, “Discovery and SAR study of novel dihydroquinoline containing glucocorticoid receptor ligands” (Bioorg Med Chem Lett, 2006):
Active and inactive are the calls of the source. The rule behind the calls is not given here.

Assays:
Progesterone receptor = target: T1, Progesterone receptor (Homo sapiens, UniProt P06401); assay: Binding affinity to human PR
T1 sequence (P06401 whole entry): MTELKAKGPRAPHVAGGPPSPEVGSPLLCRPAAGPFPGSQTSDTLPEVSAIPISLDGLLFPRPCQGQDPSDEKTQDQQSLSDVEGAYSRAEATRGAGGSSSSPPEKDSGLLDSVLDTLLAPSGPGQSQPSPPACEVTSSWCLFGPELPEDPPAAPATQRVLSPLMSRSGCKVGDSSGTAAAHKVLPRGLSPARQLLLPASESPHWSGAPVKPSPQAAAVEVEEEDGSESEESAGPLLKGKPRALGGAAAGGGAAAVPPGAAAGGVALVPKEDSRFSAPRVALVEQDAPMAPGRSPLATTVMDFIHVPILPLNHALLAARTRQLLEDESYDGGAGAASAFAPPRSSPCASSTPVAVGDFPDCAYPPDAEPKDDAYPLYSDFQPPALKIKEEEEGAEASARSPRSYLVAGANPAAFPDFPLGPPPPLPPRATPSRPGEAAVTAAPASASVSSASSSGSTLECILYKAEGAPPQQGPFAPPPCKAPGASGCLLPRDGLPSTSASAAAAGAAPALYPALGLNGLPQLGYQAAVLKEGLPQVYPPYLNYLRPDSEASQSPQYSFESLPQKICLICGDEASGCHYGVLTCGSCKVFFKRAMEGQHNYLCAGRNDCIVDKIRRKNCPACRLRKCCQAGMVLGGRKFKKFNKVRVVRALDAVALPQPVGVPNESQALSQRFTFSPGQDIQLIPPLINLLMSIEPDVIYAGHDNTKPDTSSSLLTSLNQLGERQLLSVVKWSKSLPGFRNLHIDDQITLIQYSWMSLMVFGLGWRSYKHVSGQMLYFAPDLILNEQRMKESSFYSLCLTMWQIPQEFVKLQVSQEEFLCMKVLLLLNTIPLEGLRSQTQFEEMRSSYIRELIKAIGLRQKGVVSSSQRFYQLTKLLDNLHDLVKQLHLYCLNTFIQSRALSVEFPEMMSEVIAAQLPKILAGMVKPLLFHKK

Glucocorticoid receptor [1] = target: T2, Glucocorticoid receptor (Homo sapiens, UniProt P04150); assay: Binding affinity to human GR
T2 sequence (P04150 whole entry): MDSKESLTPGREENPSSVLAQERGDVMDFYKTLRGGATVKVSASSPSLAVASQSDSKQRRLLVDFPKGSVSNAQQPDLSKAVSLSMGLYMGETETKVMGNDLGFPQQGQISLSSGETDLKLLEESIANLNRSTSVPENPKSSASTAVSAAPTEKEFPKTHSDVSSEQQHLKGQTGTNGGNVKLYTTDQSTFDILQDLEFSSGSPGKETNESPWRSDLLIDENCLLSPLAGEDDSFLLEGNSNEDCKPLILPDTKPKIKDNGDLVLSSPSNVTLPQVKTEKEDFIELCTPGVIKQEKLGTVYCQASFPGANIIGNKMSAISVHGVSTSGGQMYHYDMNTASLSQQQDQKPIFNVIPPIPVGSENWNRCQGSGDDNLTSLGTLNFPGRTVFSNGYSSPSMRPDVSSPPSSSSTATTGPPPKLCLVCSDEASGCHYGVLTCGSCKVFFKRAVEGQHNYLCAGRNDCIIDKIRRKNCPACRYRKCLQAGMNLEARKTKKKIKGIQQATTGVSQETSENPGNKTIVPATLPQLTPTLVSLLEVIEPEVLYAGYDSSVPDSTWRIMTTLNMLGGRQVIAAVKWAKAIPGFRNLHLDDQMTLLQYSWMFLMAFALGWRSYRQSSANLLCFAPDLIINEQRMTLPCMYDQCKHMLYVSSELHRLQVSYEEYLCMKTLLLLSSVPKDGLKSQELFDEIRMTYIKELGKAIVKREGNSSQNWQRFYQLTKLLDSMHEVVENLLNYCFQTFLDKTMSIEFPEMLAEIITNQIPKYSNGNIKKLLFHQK

[2] = target: T3, Mineralocorticoid receptor (Homo sapiens, UniProt P08235); assay: Binding affinity to human MR
T3 sequence (P08235 whole entry): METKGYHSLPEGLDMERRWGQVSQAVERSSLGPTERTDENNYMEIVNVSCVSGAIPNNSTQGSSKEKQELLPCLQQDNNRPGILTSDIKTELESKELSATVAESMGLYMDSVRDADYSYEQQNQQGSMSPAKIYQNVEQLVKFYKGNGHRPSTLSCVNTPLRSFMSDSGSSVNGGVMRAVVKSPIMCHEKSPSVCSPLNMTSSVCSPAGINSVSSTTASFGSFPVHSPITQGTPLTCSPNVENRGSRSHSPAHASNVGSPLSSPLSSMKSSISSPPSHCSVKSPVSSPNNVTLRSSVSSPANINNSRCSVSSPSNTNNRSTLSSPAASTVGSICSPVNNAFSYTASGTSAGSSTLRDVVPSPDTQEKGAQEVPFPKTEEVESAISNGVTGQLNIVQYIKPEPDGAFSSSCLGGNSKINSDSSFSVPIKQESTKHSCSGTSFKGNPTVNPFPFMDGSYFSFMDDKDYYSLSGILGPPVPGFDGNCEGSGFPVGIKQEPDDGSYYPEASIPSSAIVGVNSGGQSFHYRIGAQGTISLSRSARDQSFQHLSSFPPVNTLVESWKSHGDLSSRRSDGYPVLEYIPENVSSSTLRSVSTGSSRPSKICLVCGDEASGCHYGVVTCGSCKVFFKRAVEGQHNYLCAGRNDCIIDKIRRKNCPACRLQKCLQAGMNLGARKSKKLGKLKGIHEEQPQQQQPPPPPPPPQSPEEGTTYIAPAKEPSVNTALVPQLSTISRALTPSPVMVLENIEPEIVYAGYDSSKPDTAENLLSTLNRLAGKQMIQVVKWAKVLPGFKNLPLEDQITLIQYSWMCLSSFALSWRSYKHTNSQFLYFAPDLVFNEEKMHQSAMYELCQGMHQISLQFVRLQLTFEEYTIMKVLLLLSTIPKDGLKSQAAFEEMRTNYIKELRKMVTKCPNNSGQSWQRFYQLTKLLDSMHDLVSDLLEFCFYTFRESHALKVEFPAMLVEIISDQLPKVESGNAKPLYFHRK

Glucocorticoid receptor [3] = target: T2, Glucocorticoid receptor; assay: Inhibition of Dexamethasone induced GR transactivation of MMTV luciferase in HeLa cells; type: functional, cell-based
Estrogen receptor = Estrogen receptor (Homo sapiens, UniProt Q92731+P03372); assay: Binding affinity to human ER; type: protein assay
HFF = assay: Inhibition of IL1-induced IL6 production in human foreskin fibroblast; type: functional, cell-based

SMILES	IC50 (Progesterone receptor) [nM]	IC50 (Glucocorticoid receptor [1]) [nM]	IC50 [2] [nM]	IC50 (Glucocorticoid receptor [3]) [nM]	IC50 (Estrogen receptor) [nM]	Activity (HFF)
COc1ccccc1-c1ccc2c(c1)C(CSC1CCCCC1)=CC(C)(C)N2	> 2000	371	–	–	–	–
COc1ccccc1-c1ccc2c(c1)C(CSC1CCCC1)=CC(C)(C)N2	> 2000	548	–	–	–	–
C=CCNCC1=CC(C)(C)Nc2ccc(-c3ccccc3OC)cc21	> 2000	> 2000	–	–	–	–
C=CCSCC1=CC(C)(C)Nc2ccc(-c3ccccc3C(F)(F)F)cc21	> 2000	> 2000	–	–	–	–
COc1ccccc1-c1ccc2c(c1)C(CSCCC(C)C)=CC(C)(C)N2	> 2000	703	–	–	–	–
COc1ccccc1-c1ccc2c(c1)C(C)=CC(C)(C)N2	> 2000	> 2000	–	–	–	–
CCC(C)CSCC1=CC(C)(C)Nc2ccc(-c3ccccc3OC)cc21 (centres undefined)	> 2000	303	–	–	–	–
C=CCSCC1=CC(C)(C)Nc2ccc(-c3ccc(OC)cc3)cc21	> 2000	> 2000	–	–	–	–
CNC(=O)CSCC1=CC(C)(C)Nc2ccc(-c3ccccc3OC)cc21	> 2000	> 2000	–	–	–	–
C=CCSCC1=CC(C)(C)Nc2ccc(-c3ccccc3C)cc21	> 2000	> 2000	–	–	–	–
C=CCSCC1=CC(C)(C)Nc2ccc(-c3ccccc3[N+](=O)[O-])cc21	> 2000	> 2000	–	–	–	–
COc1ccc(F)cc1-c1ccc2c(c1)C(CSCCc1ccccc1)=CC(C)(C)N2	> 2000	84	> 2000	45	> 2000	inactive
COc1ccccc1-c1ccc2c(c1)C(CSc1ccc(Cl)cc1)=CC(C)(C)N2	> 2000	800	–	–	–	–
C=CCSCC1=CC(C)(C)Nc2ccc(-c3cccc(OC)c3OC)cc21	> 2000	> 2000	–	–	–	–

Further lines, with some results ahead:

IC50 (Progesterone receptor) [nM]	IC50 (Glucocorticoid receptor [1]) [nM]	IC50 [2] [nM]	IC50 (Glucocorticoid receptor [3]) [nM]	IC50 (Estrogen receptor) [nM]	SMILES	Activity (HFF)
1400	220	> 2000	260	> 2000	CC1(C)C=C(CSCCc2ccccc2)c2cc(-c3cccc(O)c3Cl)ccc2N1	inactive
> 2000	> 2000	–	–	–	C=CCSCC1=CC(C)(C)Nc2ccc(-c3cc(OC)ccc3OC)cc21	–
> 2000	> 2000	–	–	–	C=CCSCC1=CC(C)(C)Nc2ccc(-c3ccccc3OCC)cc21	–
360	> 2000	–	–	–	C=CCSCC1=CC(C)(C)Nc2ccc(-c3ccccc3F)cc21	–
> 2000	194	–	–	–	COc1ccccc1-c1ccc2c(c1)C(CSCCc1ccccc1)=CC(C)(C)N2	–
> 2000	804	–	–	–	COc1ccccc1-c1ccc2c(c1)C(CSc1ccccc1)=CC(C)(C)N2	–
> 2000	> 2000	–	–	–	C=CCSCC1=CC(C)(C)Nc2ccc(-c3cccc(OCC)c3)cc21	–
960	129	–	–	–	C=CCSCC1=CC(C)(C)Nc2ccc(-c3cccc(O)c3Cl)cc21	–
> 2000	> 2000	–	–	–	C=CCSCC1=CC(C)(C)Nc2ccc(-c3ccccc3)cc21	–
460	1000	–	–	–	C=CCSCC1=CC(C)(C)Nc2ccc(-c3cccc(OC)c3)cc21	–
> 2000	> 2000	–	–	–	C=CCSCC1=CC(C)(C)Nc2ccc(-c3ccccc3-c3ccccc3)cc21	–
> 2000	> 2000	–	–	–	C=CCOCC1=CC(C)(C)Nc2ccc(-c3ccccc3OC)cc21	–
> 2000	> 2000	–	–	–	C=CCSCC1=CC(C)(C)Nc2ccc(-c3c(OC)cccc3OC)cc21	–
460	360	–	–	–	C=CCSCC1=CC(C)(C)Nc2ccc(-c3ccccc3OC)cc21	–
> 2000	> 2000	–	–	–	COC(=O)CSCC1=CC(C)(C)Nc2ccc(-c3ccccc3OC)cc21	–
1600	1020	–	–	–	CCCSCC1=CC(C)(C)Nc2ccc(-c3ccccc3OC)cc21	–
1400	190	–	–	–	C=CCSCC1=CC(C)(C)Nc2ccc(-c3cc(F)ccc3OC)cc21	–
620	> 2000	–	–	–	COc1ccccc1-c1ccc2c(c1)C(CSC(C)=O)=CC(C)(C)N2	–
660	> 2000	–	–	–	COc1ccccc1-c1ccc2c(c1)C(CSCc1ccccc1)=CC(C)(C)N2	–
